Source: the supplement of paper PMC10307832

Columns and labels:
Experiment in all cases: relative viability (nuclei count vs DMSO), 5 days (fraction); higher = more cells survive
[1] = compound: NC(=O)[C@@H](CCC(F)(F)F)N(Cc1ccc(-c2ncon2)cc1F)S(=O)(=O)c1ccc(Cl)cc1 [Avagacestat] + CC(=O)c1c(C)c2cnc(Nc3ccc(N4CCNCC4)cn3)nc2n(C2CCCC2)c1=O [Palbociclib] (partner 0.5 µM)
In short: (§1)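 After 5 days of treatment, lung cancer cells in 1536-well plates were fixed and stained in a single step (final 0.05% Triton X-100, 1% formaldehyde, 1 ug/ml Hoechst) and their nuclei counted on 4× images. Treatment had been applied by pin tool the day after seeding as one drug alone or as a fixed anchor-drug dose with five library-drug doses (not always all listed) in √10 steps. Relative viability is the nuclei count of treated wells divided by that of vehicle wells, and values are medians of duplicate plates.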

Avagacestat + Dasatinib = compound: NC(=O)[C@@H](CCC(F)(F)F)N(Cc1ccc(-c2ncon2)cc1F)S(=O)(=O)c1ccc(Cl)cc1 [Avagacestat] + Cc1nc(Nc2ncc(C(=O)Nc3c(C)cccc3Cl)s2)cc(N2CCN(CCO)CC2)n1 [Dasatinib] (partner 0.075 µM)
In short: as §1

Avagacestat + Alpelisib = compound: NC(=O)[C@@H](CCC(F)(F)F)N(Cc1ccc(-c2ncon2)cc1F)S(=O)(=O)c1ccc(Cl)cc1 [Avagacestat] + Cc1nc(NC(=O)N2CCC[C@H]2C(N)=O)sc1-c1ccnc(C(C)(C)C(F)(F)F)c1 [Alpelisib] (partner 2 µM)
In short: as §1

Avagacestat + Bortezomib = compound: NC(=O)[C@@H](CCC(F)(F)F)N(Cc1ccc(-c2ncon2)cc1F)S(=O)(=O)c1ccc(Cl)cc1 [Avagacestat] + CC(C)C[C@H](NC(=O)[C@H](Cc1ccccc1)NC(=O)c1cnccn1)B(O)O [Bortezomib] (partner 0.002 µM)
In short: as §1

Row | Cell Line | relative viability ([1]; first compound 0.08 µM) | relative viability ([1]; first compound 0.253 µM) | relative viability ([1]; first compound 0.8 µM) | relative viability ([1]; first compound 2.53 µM) | relative viability ([1]; first compound 8 µM) | relative viability (Avagacestat + Dasatinib; first compound 0.08 µM) | relative viability (Avagacestat + Dasatinib; first compound 0.253 µM) | relative viability (Avagacestat + Dasatinib; first compound 0.8 µM) | relative viability (Avagacestat + Dasatinib; first compound 2.53 µM) | relative viability (Avagacestat + Dasatinib; first compound 8 µM) | relative viability (Avagacestat + Alpelisib; first compound 0.08 µM) | relative viability (Avagacestat + Alpelisib; first compound 0.253 µM) | relative viability (Avagacestat + Alpelisib; first compound 0.8 µM) | relative viability (Avagacestat + Alpelisib; first compound 2.53 µM) | relative viability (Avagacestat + Alpelisib; first compound 8 µM) | relative viability (Avagacestat + Bortezomib; first compound 0.08 µM) | relative viability (Avagacestat + Bortezomib; first compound 0.253 µM) | relative viability (Avagacestat + Bortezomib; first compound 0.8 µM) | relative viability (Avagacestat + Bortezomib; first compound 2.53 µM) | relative viability (Avagacestat + Bortezomib; first compound 8 µM)
1 | HARA | 0.26 | 0.237 | 0.248 | 0.263 | 0.24 | 0.234 | 0.254 | 0.228 | 0.262 | 0.239 | 0.914 | 0.783 | 0.929 | 0.782 | 0.567 | 1.71 | 1.09 | 1.17 | 1.16 | 1.07
2 | NCI-H1915 | 0.513 | 0.522 | 0.477 | 0.502 | 0.519 | 0.305 | 0.308 | 0.279 | 0.313 | 0.341 | 1.03 | 1.12 | 1.04 | 1.03 | 1.02 | 1.02 | 1.11 | 1.13 | 1 | 0.951
3 | NCI-H1734 | 0.384 | 0.335 | 0.399 | 0.301 | 0.328 | 0.545 | 0.542 | 0.48 | 0.471 | 0.432 | 0.896 | 0.641 | 0.737 | 0.674 | 0.67 | 1.26 | 1.01 | 1.01 | 1.01 | 0.945
4 | CAL-12T | 0.535 | 0.384 | 0.474 | 0.478 | 0.5 | 0.376 | 0.414 | 0.418 | 0.386 | 0.253 | 1.39 | 1.74 | 1.27 | 1.17 | 1.24 | 1.13 | 0.982 | 1.42 | 1.09 | 1.14
5 | PC-14 | 0.645 | 0.618 | 0.687 | 0.461 | 0.524 | 0.214 | 0.182 | 0.169 | 0.13 | 0.207 | 0.9 | 1.05 | 0.975 | 1.06 | 0.587 | 1.12 | 1.12 | 0.848 | 0.785 | 0.77
6 | NCI-H2087 | 0.228 | 0.181 | 0.276 | 0.223 | 0.231 | 0.893 | 1.18 | 0.994 | 0.916 | 0.686 | 1.12 | 1.26 | 1.28 | 1.18 | 1.03 | 0.946 | 1.05 | 0.917 | 0.918 | 0.8
7 | LC-2-ad | 0.483 | 0.472 | 0.529 | 0.439 | 0.381 | 0.558 | 0.489 | 0.646 | 0.447 | 0.343 | 0.798 | 0.707 | 0.769 | 0.81 | 0.788 | 1.16 | 1.12 | 1.04 | 0.934 | 0.941
8 | EKVX | 0.392 | 0.374 | 0.405 | 0.365 | 0.293 | 0.621 | 0.491 | 0.512 | 0.473 | 0.382 | 0.974 | 0.971 | 0.878 | 0.832 | 0.811 | 1.18 | 1.44 | 1.23 | 0.885 | 0.9
